The source of these data is patent publication US20260022142A1, “MACROCYCLIC IMMUNOMODULATORS” (Bristol-Myers Squibb Company, priority 2022, published 2026).

The structures appear in SMILES notation. Numbered stars: 1 amine (or outer) side, 2 acyl side, 3 side chain; on linkers, the order of the positions; unused ones are H or OH. Bridge positions count the residues as written; N and C are the ends. Square brackets hold non-standard residues; d marks the D form. Peptide text beside a SMILES is read from it. * marks the point of attachment. Phe(4-COOH) = N[C@@H](Cc1ccc(C(=O)O)cc1)C(=O)O; Bip = N[C@@H](Cc1ccc(-c2ccccc2)cc1)C(=O)O; Phe(3-Me) = Cc1cccc(C[C@H](N)C(=O)O)c1; X5 = CC(C)(CCN)[C@H](N[*:1])C(=O)[*:2]; Abu(3S-NH2) = C[C@H](N)[C@H](N)C(=O)O; NH(CH2)12COOH = O=C(O)CCCCCCCCCCCCN*; Val(3-OH) = CC(C)(O)[C@H](N)C(=O)O; Ala(cPr) = N[C@@H](CC1CC1)C(=O)O; 4Pal = N[C@@H](Cc1ccncc1)C(=O)O; 2Thi = N[C@@H](Cc1cccs1)C(=O)O; Cha = N[C@@H](CC1CCCCC1)C(=O)O; Cba = N[C@@H](CC1CCC1)C(=O)O; Carboxymethyl = O=C(O)C*; Orn = NCCC[C@H](N)C(=O)O; Aun = NCCCCCCCCCCC(=O)O; Dab = NCC[C@H](N)C(=O)O; Nva = CCC[C@H](N)C(=O)O; Dap = NC[C@H](N)C(=O)O; Ac3c = NC1(C(=O)O)CC1

The target of this assay is T1, PD-1/PD-L1 interaction (PE-labeled human PD-L1-Ig binding to Jurkat cell line over-expressing human PD-1) (Homo sapiens, UniProt Q15116).
T1 construct: expressed in transfected cells; host or cells: Jurkat
T1 sequence (Q15116 25-288): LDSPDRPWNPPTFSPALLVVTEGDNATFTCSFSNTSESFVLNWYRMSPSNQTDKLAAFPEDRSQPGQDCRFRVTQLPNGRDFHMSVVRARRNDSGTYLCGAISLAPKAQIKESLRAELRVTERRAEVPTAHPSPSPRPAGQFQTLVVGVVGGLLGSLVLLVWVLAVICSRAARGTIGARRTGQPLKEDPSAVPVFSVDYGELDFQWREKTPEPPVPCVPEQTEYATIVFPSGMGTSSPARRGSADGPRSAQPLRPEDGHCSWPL
Kind of assay: Jurkat-PD-1 Cell Binding High-Content Screening Assay (CBA). In kind it is cell-based. To be noted: Jurkat cell line over-expressing human PD-1; PE-labeled PD-L1-Ig 20 nM final; read-out: Jurkat hPD1-PDL1 IC50. A digest of the protocol:
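Binding of fluorescent PD-L1-Ig (phycoerythrin on Ig tag, 20 nM final, 1 h) measured by high-content imaging of fixed, Hoechst-counterstained Jurkat-hPD-1 cells. Compound added 2 h at 37° C beforehand, in DMEM with 10% fetal calf serum.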
As usually defined, the IC50 is the point on the concentration scale where inhibition reaches its midpoint. For the compound `Cc1cccc(C[C@@H]2NC(=O)[C@H](CC(=O)O)NC(=O)[C@H](Cc3ccc(C(=O)O)cc3)NC(=O)[C@H](Cc3ccncc3)NC(=O)CSC[C@@H](C(=O)NC3(C(=O)NCCCCCCCCCCC(=O)O)CC3)NC(=O)[C@H]([C@@H](C)O)NC(=O)[C@H](C(C)C)NC(=O)[C@H](CC(C)C)NC(=O)[C@H](CCN)NC(=O)[C@@H](CC(C)C)NC(=O)[C@H](CCCN)NC(=O)[C@H](Cc3ccc(OCC(=O)O)cc3)NC(=O)[C@H](Cc3ccc(-c4ccccc4)cc3)NC(=O)[C@H](Cc3ccc(OCC(=O)O)cc3)NC2=O)c1` [Compound 2168] ({CH2CO}-[4Pal][Phe(4-COOH)]D[Phe(3-Me)]Y(Carboxymethyl)[Bip]Y(Carboxymethyl)[Orn][dL][Dab]LVTC[Ac3c][Aun]-OH; thioether N-14), the IC50 amounted to 26.7 nM.
Then `Cc1cccc(C[C@@H]2NC(=O)[C@H](CC(=O)O)NC(=O)[C@H](Cc3ccc(OCC(=O)O)cc3)NC(=O)[C@H](CCCNC(=N)N)NC(=O)CSC[C@@H](C(=O)N[C@@H](CCN)C(=O)NCCCCCCCCCCC(=O)O)NC(=O)[C@H]([C@@H](C)O)NC(=O)[C@H](C(C)C)NC(=O)[C@H](CC3CC3)NC(=O)[C@H](CCN)NC(=O)[C@@H](CC(C)C)NC(=O)[C@H](CCCN)NC(=O)[C@H](Cc3ccc(OCC(=O)O)cc3)NC(=O)[C@H](Cc3ccc(-c4ccccc4)cc3)NC(=O)[C@H](Cc3ccc(OCC(=O)O)cc3)NC2=O)c1` [Compound 2169] ({CH2CO}-RY(Carboxymethyl)D[Phe(3-Me)]Y(Carboxymethyl)[Bip]Y(Carboxymethyl)[Orn][dL][Dab][Ala(cPr)]VTC[Dab][Aun]-OH; thioether N-14), with 14.3 nM.
Then `Cc1cccc(C[C@@H]2NC(=O)[C@H](CC(=O)O)NC(=O)[C@H](Cc3ccc(OCC(=O)O)cc3)NC(=O)[C@H](CCCNC(=N)N)NC(=O)CSC[C@@H](C(=O)N[C@@H](CCN)C(=O)NCCCCCCCCCCC(=O)O)NC(=O)[C@H](CO)NC(=O)[C@H](C(C)(C)O)NC(=O)[C@H](CC3CCCCC3)NC(=O)[C@H](CCN)NC(=O)[C@@H](CC(C)C)NC(=O)[C@H](CCCN)NC(=O)[C@H](Cc3ccc(OCC(=O)O)cc3)NC(=O)[C@H](Cc3ccc(-c4ccccc4)cc3)NC(=O)[C@H](Cc3ccc(OCC(=O)O)cc3)NC2=O)c1` [Compound 2171] ({CH2CO}-RY(Carboxymethyl)D[Phe(3-Me)]Y(Carboxymethyl)[Bip]Y(Carboxymethyl)[Orn][dL][Dab][Cha][Val(3-OH)]SC[Dab][Aun]-OH; thioether N-14), with 4.6 nM; and `Cc1cccc(C[C@@H]2NC(=O)[C@H](CC(=O)O)NC(=O)[C@H](Cc3ccc(OCC(=O)O)cc3)NC(=O)[C@H](CN)NC(=O)CSC[C@@H](C(=O)N[C@H](C(=O)NCCCCCCCCCCC(=O)O)[C@H](C)N)NC(=O)[C@H](CO)NC(=O)[C@H](C(C)C)NC(=O)[C@H](CC3CCCCC3)NC(=O)[C@H](CCN)NC(=O)[C@@H](CC(C)C)NC(=O)[C@H](CCCN)NC(=O)[C@H](Cc3ccc(OCC(=O)O)cc3)NC(=O)[C@H](Cc3ccc(-c4ccccc4)cc3)NC(=O)[C@H](Cc3ccc(OCC(=O)O)cc3)NC2=O)c1` [Compound 2172] ({CH2CO}-[Dap]Y(Carboxymethyl)D[Phe(3-Me)]Y(Carboxymethyl)[Bip]Y(Carboxymethyl)[Orn][dL][Dab][Cha]VSC[Abu(3S-NH2)][Aun]-OH; thioether N-14), with 30.6 nM; and `Cc1cccc(C[C@@H]2NC(=O)[C@H](CC(=O)O)NC(=O)[C@H](Cc3ccc(OCC(=O)O)cc3)NC(=O)[C@H](CN)NC(=O)CSC[C@@H](C(=O)N[C@@H](CCN)C(=O)NCCCCCCCCCCC(=O)O)NC(=O)[C@H]([C@H](C)N)NC(=O)[C@H](C(C)C)NC(=O)[C@H](CC3CCCCC3)NC(=O)[C@H](CCN)NC(=O)[C@@H](CC(C)C)NC(=O)[C@H](CCCN)NC(=O)[C@H](Cc3ccc(OCC(=O)O)cc3)NC(=O)[C@H](Cc3ccc(-c4ccccc4)cc3)NC(=O)[C@H](Cc3ccc(OCC(=O)O)cc3)NC2=O)c1` [Compound 2173] ({CH2CO}-[Dap]Y(Carboxymethyl)D[Phe(3-Me)]Y(Carboxymethyl)[Bip]Y(Carboxymethyl)[Orn][dL][Dab][Cha]V[Abu(3S-NH2)]C[Dab][Aun]-OH; thioether N-14), with 55 nM.
Then `Cc1cccc(C[C@@H]2NC(=O)[C@H](CC(=O)O)NC(=O)[C@H](Cc3ccc(OCC(=O)O)cc3)NC(=O)[C@H](CN)NC(=O)CSC[C@@H](C(=O)N[C@@H](CCN)C(=O)NCCCCCCCCCCC(=O)O)NC(=O)[C@H](CO)NC(=O)[C@H]([C@H](C)N)NC(=O)[C@H](CC3CCCCC3)NC(=O)[C@H](CCN)NC(=O)[C@@H](CC(C)C)NC(=O)[C@H](CCCN)NC(=O)[C@H](Cc3ccc(OCC(=O)O)cc3)NC(=O)[C@H](Cc3ccc(-c4ccccc4)cc3)NC(=O)[C@H](Cc3ccc(OCC(=O)O)cc3)NC2=O)c1` [Compound 2174] ({CH2CO}-[Dap]Y(Carboxymethyl)D[Phe(3-Me)]Y(Carboxymethyl)[Bip]Y(Carboxymethyl)[Orn][dL][Dab][Cha][Abu(3S-NH2)]SC[Dab][Aun]-OH; thioether N-14), with 11.3 nM; and `Cc1cccc(C[C@@H]2NC(=O)[C@H](CC(=O)O)NC(=O)[C@H](Cc3ccc(OCC(=O)O)cc3)NC(=O)[C@H](CN)NC(=O)CSC[C@@H](C(=O)N[C@@H](CCN)C(=O)NCCCCCCCCCCC(=O)O)NC(=O)[C@H](CO)NC(=O)[C@H](C(C)(C)O)NC(=O)[C@H](CC3CCC3)NC(=O)[C@H](CCN)NC(=O)[C@@H](CC(C)C)NC(=O)[C@H](CCCN)NC(=O)[C@H](Cc3ccc(OCC(=O)O)cc3)NC(=O)[C@H](Cc3ccc(-c4ccccc4)cc3)NC(=O)[C@H](Cc3ccc(OCC(=O)O)cc3)NC2=O)c1` [Compound 2175] ({CH2CO}-[Dap]Y(Carboxymethyl)D[Phe(3-Me)]Y(Carboxymethyl)[Bip]Y(Carboxymethyl)[Orn][dL][Dab][Cba][Val(3-OH)]SC[Dab][Aun]-OH; thioether N-14), with 10.8 nM; and `Cc1cccc(C[C@@H]2NC(=O)[C@H](CC(=O)O)NC(=O)[C@H](Cc3ccc(OCC(=O)O)cc3)NC(=O)[C@H](C(C)(C)CCN)NC(=O)CSC[C@@H](C(=O)N[C@@H](CCN)C(=O)NCCCCCCCCCCCCC(=O)O)NC(=O)[C@H](CO)NC(=O)[C@H](C(C)(C)O)NC(=O)[C@H](CC3CCCCC3)NC(=O)[C@H](CCN)NC(=O)[C@@H](CC(C)C)NC(=O)[C@H](CCCN)NC(=O)[C@H](Cc3ccc(OCC(=O)O)cc3)NC(=O)[C@H](Cc3ccc(-c4ccccc4)cc3)NC(=O)[C@H](Cc3ccc(OCC(=O)O)cc3)NC2=O)c1` [Compound 2176] ({CH2CO}-[X5]Y(Carboxymethyl)D[Phe(3-Me)]Y(Carboxymethyl)[Bip]Y(Carboxymethyl)[Orn][dL][Dab][Cha][Val(3-OH)]SC[Dab]-{NH(CH2)12COOH}; thioether N-14), with 105 nM.
As to `Cc1cccc(C[C@@H]2NC(=O)[C@H](CC(=O)O)NC(=O)[C@H](Cc3ccc(C(=O)O)cc3)NC(=O)[C@H](Cc3ccncc3)NC(=O)CSC[C@@H](C(=O)N[C@@H](CCN)C(=O)NCCCCCCCCCCC(=O)O)NC(=O)[C@H](CO)NC(=O)[C@H](C(C)(C)O)NC(=O)[C@H](CC3CCCCC3)NC(=O)[C@H](CCN)NC(=O)[C@@H](CC(C)C)NC(=O)[C@H](CCCN)NC(=O)[C@H](Cc3ccc(OCC(=O)O)cc3)NC(=O)[C@H](Cc3ccc(-c4ccccc4)cc3)NC(=O)[C@H](Cc3ccc(OCC(=O)O)cc3)NC2=O)c1` [Compound 2177] ({CH2CO}-[4Pal][Phe(4-COOH)]D[Phe(3-Me)]Y(Carboxymethyl)[Bip]Y(Carboxymethyl)[Orn][dL][Dab][Cha][Val(3-OH)]SC[Dab][Aun]-OH; thioether N-14), the IC50 is 144 nM.
Then `CCC[C@@H]1NC(=O)CSC[C@@H](C(=O)N[C@@H](CCN)C(=O)NCCCCCCCCCCC(=O)O)NC(=O)[C@H](CO)NC(=O)[C@H](C(C)(C)O)NC(=O)[C@H](CC2CCCCC2)NC(=O)[C@H](CCN)NC(=O)[C@@H](CC(C)C)NC(=O)[C@H](CCCN)NC(=O)[C@H](Cc2ccc(OCC(=O)O)cc2)NC(=O)[C@H](Cc2ccc(-c3ccccc3)cc2)NC(=O)[C@H](Cc2ccc(OCC(=O)O)cc2)NC(=O)[C@H](Cc2cccc(C)c2)NC(=O)[C@H](CC(=O)O)NC(=O)[C@H](Cc2ccc(C(=O)O)cc2)NC1=O` [Compound 2178] ({CH2CO}-[Nva][Phe(4-COOH)]D[Phe(3-Me)]Y(Carboxymethyl)[Bip]Y(Carboxymethyl)[Orn][dL][Dab][Cha][Val(3-OH)]SC[Dab][Aun]-OH; thioether N-14), with 6.4 nM; and `Cc1cccc(C[C@@H]2NC(=O)[C@H](CC(=O)O)NC(=O)[C@H](Cc3ccc(C(=O)O)cc3)NC(=O)[C@H](Cc3cccs3)NC(=O)CSC[C@@H](C(=O)N[C@@H](CCN)C(=O)NCCCCCCCCCCC(=O)O)NC(=O)[C@H](CO)NC(=O)[C@H](C(C)(C)O)NC(=O)[C@H](CC3CCCCC3)NC(=O)[C@H](CCN)NC(=O)[C@@H](CC(C)C)NC(=O)[C@H](CCCN)NC(=O)[C@H](Cc3ccc(OCC(=O)O)cc3)NC(=O)[C@H](Cc3ccc(-c4ccccc4)cc3)NC(=O)[C@H](Cc3ccc(OCC(=O)O)cc3)NC2=O)c1` [Compound 2179] ({CH2CO}-[2Thi][Phe(4-COOH)]D[Phe(3-Me)]Y(Carboxymethyl)[Bip]Y(Carboxymethyl)[Orn][dL][Dab][Cha][Val(3-OH)]SC[Dab][Aun]-OH; thioether N-14), with 22 nM; and `Cc1cccc(C[C@@H]2NC(=O)[C@H](CC(=O)O)NC(=O)[C@H](Cc3ccc(OCC(=O)O)cc3)NC(=O)C3(CC3)NC(=O)CSC[C@@H](C(=O)N[C@@H](CCN)C(=O)NCCCCCCCCCCC(=O)O)NC(=O)[C@H](CO)NC(=O)[C@H](C(C)(C)O)NC(=O)[C@H](CC3CCCCC3)NC(=O)[C@H](CCN)NC(=O)[C@@H](CC(C)C)NC(=O)[C@H](CCCN)NC(=O)[C@H](Cc3ccc(OCC(=O)O)cc3)NC(=O)[C@H](Cc3ccc(-c4ccccc4)cc3)NC(=O)[C@H](Cc3ccc(OCC(=O)O)cc3)NC2=O)c1` [Compound 2180] ({CH2CO}-[Ac3c]Y(Carboxymethyl)D[Phe(3-Me)]Y(Carboxymethyl)[Bip]Y(Carboxymethyl)[Orn][dL][Dab][Cha][Val(3-OH)]SC[Dab][Aun]-OH; thioether N-14), with 119 nM.
